The source of these data is US20230338294A1, “NOVEL PHARMACEUTICAL FORMULATION FOR C-MET INHIBITOR” (APOLLOMICS INC., priority 2020, published 2023).

The nature of data set [1]: Two stage 'gastric transfer' non-sink biorelevant dissolution test. Format: physicochemical. Particulars: for Cmax FaSSIF: intestinal stage FaSSIF pH 6.8; for AUC35-210 FaSSIF: 35-210 minutes in FaSSIF; for C210: concentration at 210 minutes. The method, then:
Biorelevant drug dissolution performance for bulk API and subsequent ASDs was evaluated by Patheon's two stage ‘gastric transfer’ non-sink dissolution test, which simulates pH and bile salt concentrations for both gastric and intestinal exposure in a simple to perform assay. Pre-weighed powder is briefly suspended in media (e.g. by 10 sec vortex mixing with 4.0 mL media) and transferred to a pre-heated (37° C.) volume of 50 mL of 0.1N HCl (aq) pH ˜1.0, without pepsin or bile salts), in a USP Type 2 mini-vessel (100 mL total vessel volume) while stirring (paddles) at 100 rpm. After 30 minutes of gastric pH exposure, an equal volume of PBS buffered, 2× concentrated fasted-state simulated intestinal fluid (FaSSIF) is added to the HCl, resulting in a final pH of 6.8 in FaSSIF (100 mM PBS containing 2.24 mg/mL FaSSIF/FeSSIF/FaSSGF powder (Biorelevant Inc.) in a total volume of 100 mL. Aliquots (1.0 mL) of dissolution media are taken at the following time points: 10, 25, 35, 50, 70, 120 and 210 minutes. The first two aliquots are taken from the simulated gastric media, with the remaining five aliquots from the intestinal media. Aliquots are spun-down (13000 rpm) to pellet out undissolved solids, and the supernatant sampled and further diluted in an appropriate diluent to determine API total drug concentration (e.g. free and colloidal/polymer-bound drug in solution) utilizing a suitable HPLC method. The volume of FaSSIF added is adjusted to account for the sampling volume removed prior to gastric transfer (typically 4×1.0 mL). Initial API concentration in dissolution samples was determined utilizing a HPLC method.
The dissolution performance of the feasibility SDIs and bulk APL-101 was tested in a biorelevant non-sink dissolution experiment as described in EXAMPLE 1. The design of this experiment is to rank order and select lead formulations. […] 20% and 33% active HPMCAS-H and 20% active HPMC-E3LV and PVP-VA based formulations were nominated as the lead formulations.

The nature of data set [2]: Glass transition temperature (Tg) by modulated DSC. The class given is physicochemical. To be noted: MDSC. As to the method: DSC was performed using a TA Instruments Discovery DSC2500 differential scanning calorimeter equipped with a TA instruments Refrigerated Cooling System 90 operating in either modulated or ramp mode. DSC was used to measure thermodynamic events and characteristics of APL-101 bulk API and subsequent Spray Dried Intermediates (SDIs). Events observed include the glass transition temperature (Tg) defined as the temperature at which amorphous materials transition from a low mobility glassy state to a high mobility rubbery state, cold crystallization (Tc), defined as a crystallization event at a temperature lower than the melt temperature, and melting temperature (Tm). SDI samples were placed in non-hermetic aluminum pans and heated at a constant rate of 2.0° C./min over a 25-200° C. temperature range. The system was purged by nitrogen flow at 50 mL/min to ensure inert atmosphere through the course of measurement. APL-101 was initially analyzed by standard DSC with a heating rate of 10° C./min ramping up to 221° C. […] The resulting amorphous API was analyzed by modulated DSC to determine the glass transition temperature. […]
Thermal properties of bulk APL-101 were measured by DSC. Three API lots were tested, and it was determined that there were two API forms, Forms A and B, both of which are thought to be hydrates. […]

Take `Cn1cc2cc(C(F)(F)c3nnc4ccc(-c5cnn(C6CC6)c5)nn34)c(F)cc2n1` [APL-101, 6-(1-cyclopropylpyrazol-4-yl)-3-[difluoro-(6-fluoro-2-methylindazol-5-yl)methyl]-[1,2,4]triazolo[4,3-b]pyridazine]: the dissolution performance result in data set [1] (gastric and intestinal media, in words) is recorded as “very low dissolution performance”.

Consider `Cn1cc2cc(C(F)(F)c3nnc4ccc(-c5cnn(C6CC6)c5)nn34)c(F)cc2n1` [APL-101 Form B, 6-(1-cyclopropylpyrazol-4-yl)-3-[difluoro-(6-fluoro-2-methylindazol-5-yl)methyl]-[1,2,4]triazolo[4,3-b]pyridazine], for which the “Cmax FaSSIF” value in data set [1] (Table 3, feasibility SDIs) is listed as 8.9 μgA/mL; in data set [1] (Table 6, prototype SDI), 8.9 μgA/mL. In addition, the “AUC35-210 FaSSIF” value in data set [1] (Table 3) and in data set [1] (Table 6) was 1400 min*μgA/mL each time. The C210 in data set [1] (Table 3) and in data set [1] (Table 6) was 7.8 μgA/mL each time. Also, the Tg in data set [2] turned out to be 89 °C. Besides, the Tm/Tg ratio in data set [2] (indicative of moderate physical stability) was 1.37 K/K.
